Measurements from patent US20130045991A1, “NEUROPROTECTIVE MODULATION OF NMDA RECEPTOR SUBTYPE ACTIVITIES” (THE UNIVERSITY OF BRITISH COLUMBIA, priority 2005, published 2013).

Experiments:
[1] = system: middle cerebral artery occlusion (MCAo); assay: MCAo focal ischemic stroke model, pretreatment; assay type: in vivo, rat; conditions: for neurological function (behavioral tests) / infarct area: i.v. 30 min before 1-h MCAo; for neurological function (behavioral tests): 24 h after onset; for infarct area: NVP-AAM077 2.4 mg/kg, Ro 25-6981 6 mg/kg, 24 h
Experimental: This aspect of the invention was also illustrated in vivo using a rat focal ischemic stroke model—middle cerebral artery occlusion (MCAo) (Aarts et al., 2002; Bederson et al., 1986). We first infused NVP-AAM077 (2.4 mg/kg), Ro 25-6981 (6 mg/kg (Loschmann et. al., 2004)) or vehicle (saline) intravenously in the rats 30 min prior to stroke onset. The animals were then subjected to a 1-h transient ischemic stroke induced by MCAo. This relatively short duration of ischemia was chosen to unmask the potential neuroprotective effects mediated by NR2A-containing receptors activated during the stroke challenge. Neurological score and cerebral infarction were examined 24 h after the MCAo onset. […] Together, these observations indicate that both NR2A- and NR2B-containing NMDA receptor subtypes are activated during stroke, exerting opposing effects on ischemic brain damage.
Transient cerebral focal ischemia was produced by middle cerebral artery occlusion (MCAo) as described (Aarts et al., 2002; Bederson et al., 1986; Longa et al., 1989). Briefly, male Sprague-Dawley rats (Charles River Laboratories) weighing ˜300 g were anesthetized and MCAo was achieved by introducing a 3-0 monofilament suture into the MCA via the internal carotid artery. Body temperature was maintained at 37.0±0.5° C., and blood pressure and blood gases were monitored during the experiments. Animals were sacrificed 24 h following MCAo onset. Cerebral infarction was analyzed using brain sections stained with hematoxylin and eosin (H & E) or 2,3,5-triphenyltetrazolium chloride (TTC). 10 min before the animals were sacrificed, two tests, the postural reflex test to examine upper body posture (Bederson et al., 1986) and the forelimb placing test to examine sensorimotor integration in forelimb placing responses to visual, tactile, and proprioceptive stimuli (De Ryck et al., 1989), were performed to grade neurological function on a scale of 0 to 12 (0=normal, 12=worst). In the pretreatment study, a single bolus of drugs (NR2A-specific antagonist NVP-AAM077 (2.4 mg/kg) or NR2B specific antagonist Ro 25-6981 (6 mg/kg) or vehicle (saline)) was infused intravenously 30 min before a 1-h MCAo. For post-treatment experiments, animals were subjected to a 1.5-h MCAo and drug treatments (glycine, 800 mg/kg; NVP-AAM077 and Ro 25-6981 at the same doses as in the pretreatment study) were then given via intraperitoneal injection (i.p.) 3 h after reperfusion (4.5 h after the onset of MCAo).

[2] = system: cortical cultures; assay: Oxygen and glucose deprivation (OGD), in vitro stroke model; assay type: cell-based, rat; conditions: 1 h OGD; NVP-AAM077 0.4 μM or Ro 25-6981 0.5 μM; apoptosis 20 h after OGD
Source text: Taking advantage of the finding of the opposing roles of NR2A- and NR2B-containing NMDA receptors in mediating cell survival and death, one aspect of the invention involves modulating the activity of the two subpopulations of receptors to ameliorate neuronal injury following acute brain insults, such as stroke and brain trauma. To illustrate this aspect of the invention, we employed a well-characterized in vitro stroke model, oxygen and glucose deprivation (OGD) (Goldberg et al., 1993; Aarts et al., 2002). Cortical cultures of 11-14 DIV were exposed to an anaerobic atmosphere for 1 h in a glucose-free solution in the absence or the presence of either NVP-AAM077 (0.4 μM) or Ro 25-6981 (0.5 μM). Neuronal apoptosis was quantitatively determined 20 h after OGD.
To visualize injured neurons, Hoechst-33342 (10 μg/ml) was added to the culture medium 20 h after treatments and incubated for 45 min at 37 °C. Images were taken with a Leica DMIRE2 fluorescence microscope. Quantitative assessment of neuronal apoptosis was performed 20 h following treatments using a Cell Death Detection ELISAPLUS Kit (Roche Applied Science). Absorbance readings were determined using a spectrophotometric microplate reader. Data analyses were carried out according to the manufacturer's instructions. Data are expressed as the difference in apoptosis relative to control and are expressed as a percentage. […]

[3] = system: cortical neurons; assay: Glycine pretreatment before NMDA-induced neuronal apoptosis; assay type: cell-based, rat; conditions: co-applied with glycine; NVP-AAM077 0.4 μM, Ro25-6981 0.5 μM
Experimental: Mature neurons (11-14 DIV) were used for experiments.
(§1) To visualize injured neurons, Hoechst-33342 (10 μg/ml) was added to the culture medium 20 h after treatments and incubated for 45 min at 37 °C. Images were taken with a Leica DMIRE2 fluorescence microscope. Quantitative assessment of neuronal apoptosis was performed 20 h following treatments using a Cell Death Detection […] Kit (Roche Applied Science). Absorbance readings were determined using a spectrophotometric microplate reader. Data analyses were carried out according to the manufacturer's instructions. Data are expressed as the difference in apoptosis relative to control and are expressed as a percentage.

[4] = system: cortical neurons; assay: Neuronal apoptosis under basal, non-stimulated conditions; assay type: cell-based, rat; conditions: no bicuculline stimulation
Experimental: Under bicuculline incubation, the increased action potential-dependent synaptic release of glutamate may lead to activation of extrasynaptic NMDA receptors by glutamate spillover.
as §1

| SMILES | decrease of total infarct volume compared with saline-treated animals ([1]; 6 mg/kg i.v. 30 min before 1-h MCAo, 24 h after MCAo onset) [%] | neurological function (behavioral tests) [1] | infarct area [1] | effect on OGD-induced neuronal apoptosis [2] | effect on the neuroprotective effect of glycine pretreatment [3] | effect on NVP-AAM077 (48 h)-induced apoptosis [4] | neuronal apoptosis after incubation for 48 h [4] | increase in total infarct volume compared with saline-treated animals ([1]; 2.4 mg/kg i.v. 30 min before 1-h MCAo, 24 h after MCAo onset) [%] | neuronal apoptosis after incubation for 4 h [4] |
| --- | --- | --- | --- | --- | --- | --- | --- | --- | --- |
| C[C@@H](CN1CCC(Cc2ccccc2)CC1)[C@@H](O)c1ccc(O)cc1 (relative stereo) [Ro 25-6981, [R-(R*,S*)]-α-(4-Hydroxyphenyl)-β-methyl-4-(phenylmethyl)-1-piperidinepropanol] | 67.8±4.3 | significant protective effect | decreased | drastically reduced | not by affected | prevented | did not increase neuronal apoptosis | – | – |
| C[C@H](NC(c1cccc2[nH]c(=O)c(=O)[nH]c12)P(=O)(O)O)c1ccc(Br)cc1 (some centres unmarked) [NVP-AAM077] | – | trend toward poorer neurological function | increased | significantly enhanced OGD-induced neuronal apoptosis | prevented | – | significant increase in neuronal apoptosis | 67.0±17.9 | failed to increase neuronal apoptosis |
